Laboratory results reported in US20200038413A1, “METHODS OF TREATING PARKINSON'S DISEASE USING AMINOSTEROL COMPOSITIONS” (Enterin, Inc., priority 2018, published 2020).

Assays:
[1] = Phase 2 trial: pharmacokinetics of orally administered squalamine (ENT-01); format: in vivo; conditions: human, based on PK of intravenously administered squalamine in prior clinical studies
Description: Pharmakokinetics: PK data were collected on the 10 patients enrolled in Stage 1 and 10 patients enrolled in Stage 2 to determine the extent of systemic absorption. In Stage 1, PK data were obtained at each visit, pre-medication, at 1, 2, 4, 8 and 24 hours (Table 10). In Stage 2, PK was measured on days 1 and 6 of the randomization period pre-medication, at 1, 2, 4 and 8 hours (Table 11).
The mean Cmax, Tmax and T1/2 and AUC of the squalamine ion following squalamine (ENT-01) oral dosing for Stage 1 patients. The PK analyses are only approximate, as the lower limit of the validated concentration range was 10 ng/ml; most of the measured concentrations fell below that value. The mean Cmax, Tmax and T1/2 and AUC of the squalamine ion following squalamine (ENT-01) oral dosing for Stage 2 patients. The PK analyses are only approximate, as the lower limit of the validated concentration range was 0.5 ng/ml.

[2] = test system: colon segments (propagating contractile clusters); test: Ex vivo colon motility (PCCs), Swiss Webster, C57BL/6 and CD-1 mice; design: species or system mouse; conditions: for increase in colonic PCC velocity / colonic PCC velocity: intraluminal 10-30 μM; for colonic PCC velocity: mean±SEM
Description: Ex vivo colon motility: For the ex vivo colonic motility experiments, the colon was excised and placed within an organ-bath perfusion chamber filled with warmed, oxygenated Krebs buffer or physiological saline (35° C., 95% O2, 5% CO2). The colon was flushed and cannulated at the oral and anal ends to a manifold and syringe to allow inflow of oxygenated Krebs buffer (or physiological saline) or Krebs and squalamine and to maintain intraluminal pressure. The height of the inflow tube at baseline measurements was parallel to the height of the colon in the organ bath (1.1 cm). Mechanical threshold defined an inflow pressure great enough to generate a contraction in under 30 sec (1.8 cm). Recordings in the first portion of the study were measured at a mechanical threshold causing a pressure differential of 2 hPa (cm H2O). Inflow was raised 2-3 hPa above baseline and outflow was raised a minimum of 0.2 hPa above inflow. Motor patterns were recorded using a Microsoft LifeCam 3000 web camera or a Logitech Quickcam Pro camera positioned 7-8 cm above the tissue. Videos were recorded during a 20-minute Krebs control and a 20-minute Krebs +squalamine period in which solutions were added to the inflow syringe.
Spatiotemporal Maps: Video recordings were used to construct spatiotemporal maps (STmaps) using edge detection software. STmaps are presented as heat maps showing the oral to anal direction across the y-axis and time across the x-axis (FIGS. 9A-C). Color corresponds to the changing diameter of the colon during periods of relaxation (green-yellow) and contraction (red) as contractile motor patterns occurred. ENS-dependent PCCs were defined as broad bands directed from the oral to anal ends that spanned more than 50% of the colon length. Parameters of motor patterns including, velocity, amplitude, and frequency were measured using ImageJ and Matlab (Version 12) software.
Statistical Analysis: Effects of squalamine on motility and IPAN excitability in WT and PD model mice were assessed in paired experiments following Krebs control and subsequent squalamine exposure. Unpaired comparisons were performed for experiments comparing PD control and PD model strains. Percent difference was calculated by (treatment-control)/control. Data are presented as mean±SEM. Ex vivo statistical comparisons were performed using paired or unpaired, two-tailed t-tests or 1-way ANOVA using Graphpad Prism software (Version 7.0). In vivo studies were analysed using 1-way and 2-way ANOVA. Statistical significance was determined when p <0.05.

[3] = test system: myenteric intrinsic primary afferent neurons (IPANs); test: Whole-cell patch clamp, divided hemi-dissection preparation, FVB PD mice; format: cell-based, mouse; conditions: for decrease in sAHP area under the curve / depolarisation of RMP / increase in number of APs at 2× threshold intensity / number of APs at 2× threshold intensity / AP threshold / sAHP area under the curve / RMP: FVB PD
Description: Whole-cell Patch Clamp: Whole-cell patch clamp was performed on a hemi-dissected myenteric plexus preparation as previously described. […]
Myenteric Primary Afferent Neuron Excitation: Squalamine excites myenteric primary afferent neurons. The effect of squalamine on the excitability of an isolated intestinal segment from the FVB PD mouse was explored using divided hemi-dissection preparations so that neurons are exposed for only half the area of an opened small intestinal segment. In this experiment, the inquiry was whether squalamine influenced the activity of the IPAN through direct interaction or indirectly, by stimulating release of epithelial mediators that influenced IPAN behaviour. Addition of squalamine (30 μM) to Krebs buffer in either the epithelial or the myenteric plexus compartments of the divided hemi-dissection preparation increased IPAN excitability (FIG. 12A-F). […] Addition of squalamine decreased the area under the curve of the sAHP by 77% from 86.8±88.2 to 20.3±25.3 mV.s, and depolarised RMP by 12% from −62±7 to −54±6 mV.

Solubility in water = format: physicochemical; conditions: pH<3.5 (the pH of gastric fluid)
[4] = C57BL/6 mice, vs Krebs control (P=0.27)
[5] = 30 μM added to the myenteric plexus

CC(C)[C@@H](CC[C@@H](C)[C@H]1CC[C@H]2[C@@H]3[C@H](O)C[C@H]4C[C@@H](NCCCNCCCCN)CC[C@]4(C)[C@H]3CC[C@]12C)OS(=O)(=O)O (single isomer, unassigned) [squalamine (ENT-01), squalamine]
oral bio-availability (estimated) [1]: less than 0.3%
increase in colonic PCC velocity ([2]; C57BL/6 mice, vs Krebs control): 38%
colonic PCC velocity ([2]; C57BL/6 mice, Krebs control 1.31±0.10): 1.80±0.20 mm/s
increase in PCC amplitude [2, 4]: 1%
increase in PCC frequency [2, 4]: 51%
PCC frequency ([2]; C57BL/6 mice, Krebs control 0.007±0.001): 0.010 ±0.003 Hz
PCC amplitude ([2]; C57BL/6 mice, Krebs control 0.66±0.06): 0.70±0.07 cm
increase in colonic PCC velocity ([2]; CD-1 mice, vs Krebs control): 81%
colonic PCC velocity ([2]; CD-1 mice, Krebs control 0.96±0.1): 1.74±0.1 mm/s
increase in PCC frequency ([2]; CD-1 mice, vs Krebs control (P=0.06)): 63%
increase in PCC amplitude ([2]; CD-1 mice, vs Krebs control (P=0.56)): 12%
PCC frequency ([2]; CD-1 mice, Krebs control 0.0099±0.0014): 0.0162±0.0026 Hz
PCC amplitude ([2]; CD-1 mice, Krebs control 0.64±0.19): 0.71±0.19 cm
increase in colonic PCC velocity ([2]; Swiss Webster mice, 20 min, vs Krebs control): 45%
colonic PCC velocity ([2]; Swiss Webster mice, Krebs control 1.14±0.10): 1.66±0.10 mm/s
increase in PCC frequency ([2]; Swiss Webster mice, vs Krebs control): 35%
decrease in PCC amplitude ([2]; Swiss Webster mice, vs Krebs control (P=0.65)): 3%
PCC frequency ([2]; Swiss Webster mice, Krebs control 0.009±0.001): 0.012±0.001 Hz
PCC amplitude ([2]; Swiss Webster mice, Krebs control 0.62±0.05): 0.61±0.05 cm
decrease in sAHP area under the curve ([3]; 30 μM added to the epithelium): 77%
depolarisation of RMP ([3]; 30 μM added to the epithelium): 12%
increase in number of APs at 2× threshold intensity ([3]; 30 μM added to the epithelium): 87%
decrease in AP threshold ([3]; 30 μM added to the epithelium, FVB PD mouse (N=15)): 44%
number of APs at 2× threshold intensity ([3]; 30 μM added to the epithelium, before 1.6±0.6): 3.1±0.7
AP threshold ([3]; 30 μM added to the epithelium, before 63.7±50.4): 35.7±22.3 pA
sAHP area under the curve ([3]; 30 μM added to the epithelium, before 86.8±88.2): 20.3±25.3 mV.s
RMP ([3]; 30 μM added to the epithelium, before −62±7): −54±6 mV
decrease in sAHP area under the curve [3, 5]: 87%
depolarisation of RMP [3, 5]: 13%
increase in number of APs at 2× threshold intensity [3, 5]: 214%
decrease in AP threshold ([3]; 30 μM added to the myenteric plexus, FVB PD mouse (N=5)): 37%
number of APs at 2× threshold intensity ([3]; 30 μM added to the myenteric plexus, before 1.4±0.5): 4.4±2.8
AP threshold ([3]; 30 μM added to the myenteric plexus, before 46.0±31.3): 29.0±10.1 pA
RMP ([3]; 30 μM added to the myenteric plexus, before −63±4): −55±6 mV
sAHP area under the curve ([3]; 30 μM added to the myenteric plexus, before −71.9±60.1): -9.6±15.1 mV.s
solubility in water (Solubility in water): readily dissolves
